Results reported in patent publication US12577206B2 (BRISTOL-MYERS SQUIBB COMPANY, priority 2020, dated 2026).

Key:
human FPR1 = biological target: T1, human FPR1 (Homo sapiens, UniProt P21462); assay: FPR1 cyclic adenosine monophosphate (cAMP) assay; assay type: cell-based; conditions: CHO cells overexpressing human FPR1; forskolin 10 μM; inhibition of cAMP production; HTRF; read-out: hFPR1 cAMP2 EC50
T1 sequence (P21462 1-350): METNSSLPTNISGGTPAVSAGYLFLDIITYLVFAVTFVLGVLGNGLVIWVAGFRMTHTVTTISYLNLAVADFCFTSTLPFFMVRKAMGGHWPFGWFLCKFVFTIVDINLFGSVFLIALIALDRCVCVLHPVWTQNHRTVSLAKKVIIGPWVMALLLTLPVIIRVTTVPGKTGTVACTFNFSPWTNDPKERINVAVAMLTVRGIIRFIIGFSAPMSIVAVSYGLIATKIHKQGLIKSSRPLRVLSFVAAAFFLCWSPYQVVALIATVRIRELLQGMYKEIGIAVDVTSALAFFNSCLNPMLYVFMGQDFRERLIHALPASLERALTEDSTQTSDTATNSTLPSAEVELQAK
Outline: (§1)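 Gi-coupled activity is read as suppression of forskolin-stimulated cAMP (10 μM final for FPR1, 5 μM final for FPR2; IBMX 200 μM final) in recombinant CHO cells, 30 min incubation at rt, HTRF detection.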

human FPR2 = biological target: T2, human FPR2 (Homo sapiens, UniProt P25090); assay: FPR2 cyclic adenosine monophosphate (cAMP) assay; assay type: cell-based; conditions: CHO cells overexpressing human FPR2; forskolin 5 μM; inhibition of cAMP production; HTRF; read-out: hFPR2 cAMP2 EC50
T2 sequence (P25090 1-351): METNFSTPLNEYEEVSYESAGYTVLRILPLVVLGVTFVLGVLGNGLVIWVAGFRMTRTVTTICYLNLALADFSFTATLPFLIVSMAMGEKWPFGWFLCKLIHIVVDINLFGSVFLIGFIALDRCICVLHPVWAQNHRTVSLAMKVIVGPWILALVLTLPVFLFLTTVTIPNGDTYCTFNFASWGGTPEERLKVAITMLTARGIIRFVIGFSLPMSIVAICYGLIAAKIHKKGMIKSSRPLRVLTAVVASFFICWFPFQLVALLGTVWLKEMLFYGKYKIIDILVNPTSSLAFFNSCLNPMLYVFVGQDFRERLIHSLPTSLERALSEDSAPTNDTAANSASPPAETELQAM
Outline: as §1

Structure (SMILES) | EC50 (human FPR1) | EC50 (human FPR2)
COc1cc(F)c(-c2c(NC(=O)c3ccc(OC(F)F)cc3)c(=O)n(Cc3nnc(C(C)C)o3)n2C)c(F)c1 [Example 57, N-[5-(2,6-difluoro-4-methoxyphenyl)-1-methyl-3-oxo-2-{[5-(propan-2-yl)-1,3,4-oxadiazol-2-yl]methyl}-2,3-dihydro-1H-pyrazol-4-yl]-4-(difluoromethoxy)benzamide] | 380 nM | 150 nM
COc1cc(F)c(-c2c(NC(=O)c3ccc(OC(F)F)cc3)c(=O)n(-c3cc(C#N)cc(C(F)(F)F)n3)n2C)c(F)c1 [Example 341, N-(2-(4-Cyano-6-(trifluoromethyl)pyridin-2-yl)-5-(2,6-difluoro-4-methoxyphenyl)-1-methyl-3-oxo-2,3-dihydro-1H-pyrazol-4-yl)-4-(difluoromethoxy)benzamide] | 2600 nM | 10 nM
COc1cc(F)c(-c2c(NC(=O)c3ccc(OC(F)F)cc3)c(=O)n(-c3cccc(C#N)c3F)n2C)c(F)c1 [Example 189, N-[2-(3-cyano-2-fluorophenyl)-5-(2,6-difluoro-4-methoxyphenyl)-1-methyl-3-oxo-2,3-dihydro-1H-pyrazol-4-yl]-4-(difluoromethoxy)benzamide] | 190 nM | 5 nM
COc1cc(F)c(-c2c(NC(=O)c3ccc(C4CC4)cc3)c(=O)n(-c3ccc(C4CC4)cn3)n2C)c(F)c1 [Example 53, 4-cyclopropyl-N-[2-(5-cyclopropylpyridin-2-yl)-5-(2,6-difluoro-4-methoxyphenyl)-1-methyl-3-oxo-2,3-dihydro-1H-pyrazol-4-yl]benzamide] | 610 nM | 59 nM
COc1cc(F)c(-c2c(NC(=O)c3ccc(OC(F)F)cc3)c(=O)n(-c3cccc(OC)n3)n2C)c(F)c1 [Example 75, N-[5-(2,6-difluoro-4-methoxyphenyl)-2-(6-methoxypyridin-2-yl)-1-methyl-3-oxo-2,3-dihydro-1H-pyrazol-4-yl]-4-(difluoromethoxy)benzamide] | 2300 nM | 7 nM
COc1cc(F)c(-c2c(NC(=O)c3ccc(OC(F)F)cc3)c(=O)n(-c3cccc(N4CCCCC4)n3)n2C)c(F)c1 [Example 80, N-[5-(2,6-difluoro-4-methoxyphenyl)-1-methyl-3-oxo-2-[6-(piperidin-1-yl)pyridin-2-yl]-2,3-dihydro-1H-pyrazol-4-yl]-4-(difluoromethoxy)benzamide] | 1300 nM | 2 nM
Cn1ncc2cc(-c3c(NC(=O)c4ccc(OC(F)F)cc4)c(=O)n(-c4ncccc4C(F)(F)F)n3C)ccc21 [Example 223, 4-(difluoromethoxy)-N-(1-methyl-5-(1-methyl-1H-indazol-5-yl)-3-oxo-2-(3-(trifluoromethyl)pyridin-2-yl)-2,3-dihydro-1H-pyrazol-4-yl)benzamide] | > 5000 nM | 166 nM
COc1cc(F)c(-c2c(NC(=O)c3ccc(OC(F)F)cc3)c(=O)n(-c3nc(N(CCO)CCO)ccc3C(F)(F)F)n2C)c(F)c1 [Example 139, N-(2-{6-[bis(2-hydroxyethyl)amino]-3-(trifluoromethyl)pyridin-2-yl}-5-(2,6-difluoro-4-methoxyphenyl)-1-methyl-3-oxo-2,3-dihydro-1H-pyrazol-4-yl)-4-(difluoromethoxy)benzamide] | > 10000 nM | 3 nM
CCOc1ccc(Cl)nc1-n1c(=O)c(NC(=O)c2ccc(OC(F)F)cc2)c(-c2c(F)cc(OC)cc2F)n1C [Example 248, N-[2-(6-chloro-3-ethoxypyridin-2-yl)-5-(2,6-difluoro-4-methoxyphenyl)-1-methyl-3-oxo-2,3-dihydro-1H-pyrazol-4-yl]-4-(difluoromethoxy)benzamide] | > 10000 nM | 8 nM
COc1cc(F)c(-c2c(NC(=O)c3ccc(OC(F)F)cc3)c(=O)n(-c3cc(OCC(C)O)cc(C)n3)n2C)c(F)c1 (stereo not shown) [Example 394, N-(5-(2,6-Difluoro-4-methoxyphenyl)-2-(4-(2-hydroxypropoxy)-6-methylpyridin-2-yl)-1-methyl-3-oxo-2,3-dihydro-1H-pyrazol-4-yl)-4-(difluoromethoxy)benzamide] | 740 nM | 5 nM
COc1cc(F)c(-c2c(NC(=O)c3ccc(OC(F)F)cc3)c(=O)n(-c3cccc(N4CCN(CC5CC5)CC4)n3)n2C)c(F)c1 [Example 207, N-(2-{6-[4-(cyclopropylmethyl)piperazin-1-yl]pyridin-2-yl}-5-(2,6-difluoro-4-methoxyphenyl)-1-methyl-3-oxo-2,3-dihydro-1H-pyrazol-4-yl)-4-(difluoromethoxy)benzamide] | 140 nM | 3 nM
COc1cc(F)c(-c2c(NC(=O)c3ccc(OC(F)F)cc3)c(=O)n(-c3cccc(NC(=O)C(C)(C)C)n3)n2C)c(F)c1 [Example 84, N-[5-(2,6-difluoro-4-methoxyphenyl)-2-[6-(2,2-dimethylpropanamido)pyridin-2-yl]-1-methyl-3-oxo-2,3-dihydro-1H-pyrazol-4-yl]-4-(difluoromethoxy)benzamide] | 82 nM | 5 nM
COc1cc(F)c(-c2c(NC(=O)c3ccc(OC(F)F)cc3)c(=O)n(-c3nc(N4CCC(C(N)=O)C4)ccc3C(F)(F)F)n2C)c(F)c1 (stereo not shown) [Example 305, 1-{6-[3-(2,6-difluoro-4-methoxyphenyl)-4-[4-(difluoromethoxy)benzamido]-2-methyl-5-oxo-2,5-dihydro-1H-pyrazol-1-yl]-5-(trifluoromethyl)pyridin-2-yl}pyrrolidine-3-carboxamide] | 3900 nM | 2 nM
COc1cc(F)c(-c2c(NC(=O)c3ccc(OC(F)F)cc3)c(=O)n(-c3nc(N4CCC(C)(O)C4)ccc3C(F)(F)F)n2C)c(F)c1 (stereo not shown) [Example 282, N-[5-(2,6-difluoro-4-methoxyphenyl)-2-[6-(3-hydroxy-3-methylpyrrolidin-1-yl)-3-(trifluoromethyl)pyridin-2-yl]-1-methyl-3-oxo-2,3-dihydro-1H-pyrazol-4-yl]-4-(difluoromethoxy)benzamide] | 2100 nM | 2 nM
COc1ccc(-c2c(NC(=O)c3ccc(OC(F)F)cc3)c(=O)n(-c3ncccc3C(F)(F)F)n2C)cc1 [Example 250, 4-(difluoromethoxy)-N-[5-(4-methoxyphenyl)-1-methyl-3-oxo-2-[3-(trifluoromethyl)pyridin-2-yl]-2,3-dihydro-1H-pyrazol-4-yl]benzamide] | 970 nM | 13 nM
COc1cc(F)c(-c2c(NC(=O)c3ccc(OC(F)F)cc3)c(=O)n(-c3nc(N4CCN(C)CC4)ccc3C(F)(F)F)n2C)c(F)c1 [Example 135, N-[5-(2,6-difluoro-4-methoxyphenyl)-1-methyl-2-[6-(4-methylpiperazin-1-yl)-3-(trifluoromethyl)pyridin-2-yl]-3-oxo-2,3-dihydro-1H-pyrazol-4-yl]-4-(difluoromethoxy)benzamide] | 2400 nM | 3 nM
COc1cc(F)c(-c2c(NC(=O)c3ccc(OC(F)F)cc3)c(=O)n(-c3nc(OC)ccc3C#N)n2C)c(F)c1 [Example 185, N-[2-(3-cyano-6-methoxypyridin-2-yl)-5-(2,6-difluoro-4-methoxyphenyl)-1-methyl-3-oxo-2,3-dihydro-1H-pyrazol-4-yl]-4-(difluoromethoxy)benzamide] | > 10000 nM | 5 nM
COc1cc(F)c(-c2c(NC(=O)c3ccc(OC(F)F)cc3)c(=O)n(-c3nc(Cl)ccc3F)n2C)c(F)c1 [Example 146, N-[2-(6-chloro-3-fluoropyridin-2-yl)-5-(2,6-difluoro-4-methoxyphenyl)-1-methyl-3-oxo-2,3-dihydro-1H-pyrazol-4-yl]-4-(difluoromethoxy)benzamide] | > 10000 nM | 6 nM
COc1cc(C2CCCN(C)C2)nc(-n2c(=O)c(NC(=O)c3ccc(OC(F)F)cc3)c(-c3c(F)cc(OC)cc3F)n2C)c1 (stereo not shown) [Example 342, N-(5-(2,6-Difluoro-4-methoxyphenyl)-2-(4-methoxy-6-(1-methylpiperidin-3-yl)pyridin-2-yl)-1-methyl-3-oxo-2,3-dihydro-1H-pyrazol-4-yl)-4-(difluoromethoxy)benzamide] | > 10000 nM | 2 nM
COc1cc(F)c(-c2c(NC(=O)c3ccc(OC(F)F)cc3)c(=O)n(-c3nc(N4CCCC4=O)ccc3C(F)(F)F)n2C)c(F)c1 [Example 297, N-[5-(2,6-difluoro-4-methoxyphenyl)-1-methyl-3-oxo-2-[6-(2-oxopyrrolidin-1-yl)-3-(tifluoromethyl)pyridin-2-yl]-2,3-dihydro-1H-pyrazol-4-yl]-4-(difluoromethoxy)benzamide] | 380 nM | 2 nM
